Data set [1] relates to ER− breast cancer cell lines (triple negative breast cancer cell line). As to the kind of experiment: Cell Titer-Glo dose dependent viability assay, ER- breast cancer cell lines. In kind it is cell-based. On the procedure:
(§1) To measure the effects of TC-E 5008 on cell viability, breast cancer cells were seeded in 96-well plates (4×10^3 cells/well) in RPMI medium containing 10% fetal bovine serum. After an overnight incubation, cells were treated with varying concentrations of TC-E 5008 or other mutant IDH1 inhibitors for 72 hours. Viability was measured using Cell Titer-Glo Luminescent Cell Viability Assay (Promega) in 96-well, flat, clear-bottom, opaque-wall micro plates according to manufacturer's protocol. IC50 was less than […] in ER+ breast cancer cell lines and greater than […] in ER− breast cancer cell lines, as shown in the Figures.
(§2) A compound having a structure in accordance with Formula II (sometimes referred to herein as “TC-E 5008”) was selected for validation with an integrated confidence score of 1362.6. Three commonly used ER-positive breast cancer cell lines MCF-7, ZR-75 and T-47D were used for in vitro validation.

Data set [2] concerns ER-positive breast tumors samples. Description: Patient-derived explant (PDE) ex vivo culture of primary breast tumors, Ki-67 staining. The data set is classed as cell-based, human. On the procedure: Excised tissue samples were processed and cultured ex vivo. De-identified tumors were obtained from the University of Texas Southwest Tissue Repository after institutional review board approval. Briefly, tumor samples were incubated on gelatin sponges for 24 hours in culture medium containing 10% fetal bovine serum (hereafter “FBS”), followed by treatment with either vehicle, 10 μM TC-E 5008 for 72 hours. Representative tissues were fixed in 10% formalin at 4° C. overnight and subsequently processed into paraffin blocks. The sections were then processed for immunohistochemical analysis.
In order to further validate TC-E 5008, an ex vivo culture model of primary breast tumors was used—which allows for the validation of drugs on breast tumors in their native tissue architecture. Specifically, surgically resected breast tissues were sliced into small pieces and grown ex vivo for short term on a gelatin sponge in the absence or presence of desired compound (see FIG. 4). In order to test TC-E 5008 in a variety of ER-positive tumors, estrogen receptor positivity was the only inclusion criteria used for the breast tumor samples.

Data set [3] concerns ER+ breast cancer cell lines (MCF-7, ZR-75 and T-47D). As to the kind of experiment: Cell Titer-Glo dose dependent viability assay, ER+ breast cancer cell lines. In kind it is cell-based. On the procedure: as §1, §2
Where [4] appears, read: ER-positive tumor explants, 10 μM, 72 hours.
[5] abbreviates: ER-positive tumor explants, 10 μM, 72 hours, versus untreated controls.

Entries after “also recorded” stand apart in the source; their conditions may differ.

Turning to `Cc1cc(Cc2ccccc2)n(O)c(=O)c1` [TC-E 5008], in data set [1] (ER− breast cancer cell lines, 72 hours, Cell Titer-Glo), the IC50 was above 10 µM. In addition, the activity on proliferation result in data set [1] (triple negative breast cancer cell line, FIG. 2) is given as “showed less activity”. For the same compound, in data set [2] (setting [4]), the “patients showing a reduction in Ki-67 staining (Partial responders)” value is reported as 3/10, the “patients showing a significant reduction (Complete responders)” value is 4/10 and the “patients with decreased proliferation (Ki-67 staining)” value is recorded as 7/10. In data set [2] (setting [5]), the “reduction in Ki-67 staining, Complete responders” value is listed as 40-95% and the “reduction in Ki-67 staining, Partial responders” value is given as 0-25%. For the same compound, the “tumor tissues showing an increase in proliferation (Non-responders)” value in data set [2] (compared to untreated controls, FIG. 7) was “Three”. Moreover, the response rate in data set [2] (limited cohort of 10 ER-positive tumors) stood at 40%. Besides, the proliferative indices result in data set [2] (primary tumor explants cultured ex vivo, 10 μM, 72 hour) is “significant decrease in proliferative indices”. For the same compound, the “morphological changes in the patient tissues” value in data set [2] (treated tissues compared to controls) is given as “did not observe morphological changes”. In addition, in data set [3] (ER+ breast cancer cell lines, 72 hours, Cell Titer-Glo), the IC50 is below 2 µM. The “anti-proliferative activity / proliferation” value in data set [3] (ER-positive lines MCF-7, ZR-75 and T-47D, FIG. 1, 8, 9) is on record as “anti-proliferative activity; also recorded: blocked proliferation of all three ER-positive breast cancer cell lines”.

The values above are taken from patent publication US20230406825A1, “COMPOUNDS, COMPOSITIONS THEREOF, AND METHODS FOR TREATING ER+ BREAST CANCER” (The Board of Regents of The University of Texas System, priority 2020, published 2023).
